Source: patent US6291676A, “Water-soluble derivatives of camptothecin/homocamptothecin” (priority 2000, dated 2001)
Read-outs that look alike come from different tables or passages of the source.

What was measured:
[1] = cited from earlier work
[2] = Excited-state lifetime of camptothecin; assay type: physicochemical; conditions: 37° C
Procedure: We have examined the excited-state lifetime values of camptothecin in PBS, glycerol, and methanol at 37° C. The lifetime values were determined to be 4.7 ns, 3.8 ns, and 3.5 ns, respectively.

[3] = Fluorescence anisotropy titration: association with electroneutral DMPC vesicles; assay type: physicochemical; conditions: PBS buffer, pH 7.4, physiological temperature, DMPC
Procedure: (§1) Vesicle Preparation. Small unilamellar vesicle (SUV) suspensions were prepared the day of an experiment by the method of Burke et al. (T. G. Burke, A. K. Mishra, M. C. Wani, and M. E. Wall, Lipid Bilayer Partitioning and Stability of Camptothecin Drugs, Biochem., 32(20), 5352 (1993)). Briefly, stock lipid suspensions containing 200 mg/mL lipid in phosphate buffered saline (PBS, pH 7.4) were prepared by Vortex mixing for 5-10 min above the TM of the lipid. The lipid dispersions were then sonicated using a bath-type sonicator (Laboratory Supplies Co., Hicksville, N.Y.) for 3-4 h until they became optically clear. […] Each type of vesicle suspension was annealed for 30 min at 37° C. and then used in an experiment.
(§2) Fluorescence Instrumentation. Steady-state fluorescence measurements were obtained on a SLM Model 9850 spectrofluorometer with a thermostated cuvette compartment. This instrument was interfaced with an IBM PS/2 model 55 SX computer. Excitation and emission spectra were recorded with an excitation resolution of 8 nm and an emission resolution of 4 nm. In all cases spectra were corrected for background fluorescence and scatter from unlabeled lipids or from solvents by subtraction of the spectrum of a blank. Steady-state fluorescence intensity measurements were made in the absence of polarizers. Steady-state anisotropy (a) measurements were determined with the instrument in the "T-format" for simultaneous measurement of two polarized intensities. […] The anisotropy was calculated from a =(IVV -GIVH)/(IVV +2GIVH), where G=IHV /IHH and the subscripts refer to vertical and horizontal orientations of the excitation and emission polarizers, respectively.
(§3) Anisotropy measurements for camptothecins were conducted using exciting light in the range of 370 nm to 400 nm and long pass filters on each emission channel in order to isolate the drug's fluorescence signal from background scatter and/or residual fluorescence. […] The combination of exciting light and emission filters allowed us to adequately separate fluorescence from background signal. […]

[4] = Fluorescence anisotropy titration: association with negatively-charged DMPG vesicles; assay type: physicochemical; conditions: PBS buffer, pH 7.4, physiological temperature, DMPG
Procedure: as §1, §2, §3

[5] = aqueous medium; cited from earlier work
topoisomerase I [6] = assay: Reversal of topoisomerase I cleavable complexes after NaCl addition; assay type: biochemical; conditions: after 0.35M NaCl; for stability of cleavable complexes: relative to camptothecin and SN-38
Text: (§4) Evaluation of the Relative Abilities of the Novel Polyamine Camptothecin Analogs to Induce Topoisomerase I Mediated DNA Single Strand Breaks. We have evaluated the abilities of the novel compounds of the present invention to inhibit the topoisomerase I enzyme. In these experiments the oligonucleotide was labeled at the 3'-end of the upper (scissile) strand with 32P-α-cordycepin and terminal transferase (Pommier, Y., Kohlhagen, G., Kohn, F., Leteurtre, F., Wani, M. C., and Wall, M. E. Proc. Natl. Acad. Sci. U.S.A. 92:8861-8865, 1995). Topoisomerase I (Top1) cleavage generates a 23mer that can be easily detected by electrophoresis and quantitated by Phosphorimager analysis. Tanizawa et al. (Tanizawa, A., Kohn, K. W., Kohlhagen, G., Leteurtre, F., and Pommier, Y. Biochemistry […]:7200-7206, 1995) have previously shown that camptothecin derivatives differ in the manner in which they stabilize the top1 cleavable complexes that they induce. The novel polyamine camptothecins of the present invention were compared in this assay. 0.35M NaCl was added to force top 1-mediated DNA religation and DNA cleavage was measured at various times after NaCl addition. FIG. 9 is a typical phosphoimager picture showing the timecourse of the effects of various camptothecins on the relaxation of DNA in the presence of topoisomerase I. Topoisomerase I-mediated cleavage generates DNA fragments that can be readily detected by electrophoresis and quantitated by phosphorimager analysis.

topoisomerase I [7] = assay: Topoisomerase I mediated DNA cleavage (cleavable complex induction); assay type: biochemical; conditions: for distribution of cleavage sites vs camptothecin or SN-38 / induction of cleavable complex formation: topoisomerase I; for induction of cleavable complex formation: 3'-32P-labeled oligonucleotide; for dose response with respect to inducing DNA fragmentation: FIG. 10
Text: as §4
FIG. 10 is a phosphoimager picture showing the dose response of various camptothecin compounds described in the present invention on the relaxation of DNA in the presence of topoisomerase I. Topoisomerase I-mediated cleavage generates DNA fragments that can be readily detected by electrophoresis and quantitated by phosphorimager analysis as shown.
FIG. 11 contains a phosphoimager picture (bottom figure) showing the dose response effects of several of the novel polyamine camptothecins of the current invention on the relaxation of DNA in the presence of topoisomerase I. Topoisomerase I-mediated cleavage generates DNA fragments that can be readily detected by electrophoresis and quantitated by phosphorimager analysis (top figure).

CC[C@@]1(O)C(=O)OCc2c1cc1n(c2=O)Cc2cc3ccccc3nc2-1 [Camptothecin]
enhancement in the anisotropy value upon binding to vesicles ([1]; vesicles of either DMPC or DMPG): 21 fold | average excited-state lifetime, membrane-bound drug ([2]; DMPC bilayers): 3.7 ns | excited-state lifetime ([2]; PBS): 4.7 ns | excited-state lifetime ([2]; glycerol): 3.8 ns | excited-state lifetime ([2]; methanol): 3.5 ns | Overall association constant KDMPC [3]: 100 M⁻¹ | Overall association constant KDMPG [4]: 100 M⁻¹ | half-life of lactone ring hydrolysis [5]: approximately 20 min

CC[C@@]1(O)C(=O)OCc2c1cc1n(c2=O)Cc2c-1nc1ccccc1c2CCCNC(=N)N [compound #8]
stability of cleavable complexes (topoisomerase I [6]): intermediate stabilities between camptothecin and SN-38 | distribution of cleavage sites vs camptothecin or SN-38 (topoisomerase I [7]): comparable to those generated by camptothecin or 7-ethyl-10-hydroxycamptothecin (SN-38) | induction of cleavable complex formation (topoisomerase I [7]): good inducers of cleavable complex formation

CC[C@@]1(O)C(=O)OCc2c1cc1n(c2=O)Cc2c-1nc1ccccc1c2CCN=[N+]=[N-] [7-(2-azidoethyl)]
dose response with respect to inducing DNA fragmentation (topoisomerase I [7]): particularly good dose response

CC[C@@]1(O)C(=O)OCc2c1cc1n(c2=O)Cc2cc3c(CN(C)C)c(O)ccc3nc2-1 [topotecan]
steady-state fluorescence anisotropy (a) ([1]; PBS): 0.008 | increase of anisotropy value vs PBS ([1]; glycerol): 40 fold | increase of anisotropy value vs PBS ([1]; octanol): 9 fold

CC[C@@]1(O)C(=O)OCc2c1cc1n(c2=O)Cc2c-1nc1ccccc1c2CCCCCN=[N+]=[N-] [7-(5-azidopentyl)]
dose response with respect to inducing DNA fragmentation (topoisomerase I [7]): particularly good dose response

CCc1c2c(nc3ccc(O)cc13)-c1cc3c(c(=O)n1C2)COC(=O)[C@]3(O)CC [SN-38, 7-ethyl-10-hydroxycamptothecin, reference compound]
reversal of cleavable complexes (topoisomerase I [6]; compared with camptothecin): reversed more slowly than those induced by camptothecin

CC[C@@]1(O)C(=O)OCc2c1cc1n(c2=O)Cc2c-1nc1ccccc1c2CCNC(=N)N [compound #9]
stability of cleavable complexes (topoisomerase I [6]): intermediate stabilities between camptothecin and SN-38 | distribution of cleavage sites vs camptothecin or SN-38 (topoisomerase I [7]): comparable to those generated by camptothecin or 7-ethyl-10-hydroxycamptothecin (SN-38) | induction of cleavable complex formation (topoisomerase I [7]): good inducers of cleavable complex formation
